Several values for one entry are separate records, joined by “and”; a condition that tells them apart may be missing. Identical values can stand only once.
Tests used:
[1] = Accelerating rate calorimetry (ARC) study, heat-wait-search mode; conditions: for Onset temperature of exotherm / Onset of exothermic activity: HWS mode, adiabatic, air, titanium bomb; for ΔT adiabatic / Adiabatic Temperature Rise (phi corrected): phi factor 1.6684
[2] = Time to maximum rate (TMR) estimated from phi factor corrected ARC data; assay type: physicochemical
Source text: Test data obtained from the ARC can be used to estimate the self-accelerating decomposition temperature of a sample (J. K. Wilberforce, “The Use of the Accelerating Rate calorimeter to determine the SADT of organic peroxides,” Columbia Scientific Industries, Milton Keynes; Harold G. Fisher and David D. Goetz, “Determination of self-accelerating decomposition temperature using the accelerating rate calorimeter,” J. Loss Prev. Process Ind., 1991, Vol 4., 305-316). Time to maximum rate (TMR) is defined as the amount of time that is needed for a reaction to reach its maximum self-heating rate or pressure rate in a thermal runaway reaction. TMR data was extracted from the phi factor corrected test data and a plot of Ln(TMR) against −1000/T was generated (FIG. 4).
The following equation was taken from FIG. 4 to allow the determination of the time to maximum rate as a function of temperature: Ln(TMR(s))=−16.389*(−1000/(T(K)))−29.262 The TMR increases as the batch temperature decreases. The measured exotherm was used to estimate the TMR. The results are provided only as a reference, as it is based on a single ARC test and not a detailed kinetic study (FIG. 5).

[3] = Effect of pH on solubility in water (HPLC of supernatant); assay type: physicochemical
Procedure: To further purify N^6-((2-azidoethoxy)carbonyl)-L-lysine (Formula (VIa)), a suspension of N^6-((2-azidoethoxy)carbonyl)-L-lysine (Formula (VIa)) in water was prepared, followed by addition of HC1 to form a solution. Neutralization of the resulting solution with ammonium hydroxide reprecipitates the product and further purges the material of residual impurities, which remain in solution. In order to improve product yield, the effect of pH on the solubility of N^6-((2-azidoethoxy)carbonyl)-L-lysine (Formula (VIa)) was examined. Briefly, this study involved suspending N^6-((2-azidoethoxy)carbonyl)-L-lysine (Formula (VIa)) in water, progressively basifying the mixture, and determining the amount of N^6-((2-azidoethoxy)carbonyl)-L-lysine (Formula (VIa)) in the supernatant as a function of pH.
N^6-((2-azidoethoxy)carbonyl)-L-lysine (Formula (VIa)) (0.95 g) was charged into a 20 mL glass scintillation vial along with water (7.2 g). The resulting suspension was thoroughly mixed on a vortex apparatus for 60 seconds, then allowed to settle for 5 minutes. The pH of the supernatant was measured at 4.44 and an aliquot was taken and diluted with HPLC eluent (H2O:CH3CN 1:1, 0.1% TFA). The sample was analyzed by HPLC (column: ACE Excel 3 Super C18, 4.6×150 mm, 3.0 μm, flow rate: 1.2 mL/min, phase A: 0.1% TFA in water, phase B: 0.1% TFA in acetonitrile) and the content of N^6-((2-azidoethoxy)carbonyl)-L-lysine (Formula (VIa)) was calculated based on HPLC analysis of Formula (VIa) standards.
The contents of the scintillation vial were basified by addition of a drop of 28-30% ammonium hydroxide, and the suspension was vortexed, allowed to decant, and the supernatant was again sampled and analyzed by HPLC.

CC(C)(C)OC(=O)N[C@@H](CCCCNC(=O)OCCN=[N+]=[N-])C(=O)OC(C)(C)C [Formula (IIIa)]
Maximum pressure of test [1]: 157.1 Bar gauge | Maximum pressure rate of test [1]: 2.756 Bar min^−1 | Maximum self-heating rate of test [1]: 2.10 K min^−1 | Temperature at maximum pressure rate [1]: 208.5 °C | Temperature at maximum self-heat rate [1]: 211.5 °C | Final temperature of exotherm / End of exothermic activity ([1]; 1st exotherm): 100.79 °C | ΔT ([1]; 1st exotherm): 0.65 °C | Onset temperature of exotherm / Onset of exothermic activity ([1]; 1st exotherm): 100.14 °C | ΔT adiabatic / Adiabatic Temperature Rise (phi corrected) ([1]; 1st exotherm): 1.08 °C | ΔH reaction ([1]; 1st exotherm, sample heat capacity estimated 2.10): −2.27 Joule/gram | Onset temperature of exotherm / Onset of exothermic activity ([1]; 2nd (major) exotherm): 160.5 °C and 160.48 °C | Final temperature of exotherm / End of exothermic activity ([1]; 2nd exotherm): 227.19 °C | ΔT ([1]; 2nd exotherm): 66.71 °C | ΔT adiabatic / Adiabatic Temperature Rise (phi corrected) ([1]; 2nd exotherm): 111.29 °C | ΔH reaction ([1]; 2nd exotherm, sample heat capacity estimated 2.10): −233.71 Joule/gram | Heat of reaction (exothermic) ([1]; Exotherm 1): -2.27 J/g | Heat of reaction (exothermic) ([1]; Exotherm 2): -233.71 J/g | ΔH reaction ([1]; Value column (both exotherms together)): −235.99 Joule/gram | non-condensable gas remained in the bomb after completion of the test ([1]; after cooling to near ambient temperature at 30.7° C.): 35.5 Bar gauge | Total heat released during the ARC test (all exotherms) ([1]; all exotherms): -235.98 J/g | maximum pressure rate ([1]; at 208.5° C.): 2.756 bar/min | maximum self-heat rate recorded ([1]; at 211.5° C.): 2.098 K/min | thermal hazard in preparing the compound ([1]; conclusion from ARC and TMR data): no significant thermal hazard | Maximum temperature of test ([1]; test stopped by pressure trip): 379.2 °C | total heat of the two exotherms ([1]; two exotherms): 236.0 J/g | Time to maximum rate (TMR) ([2]; 122.0 ° C.): 48.3 h | Time to maximum rate (TMR) ([2]; 129.0 ° C.): 23.5 h | Time to maximum rate (TMR) ([2]; 140.0 ° C.): 7.9 h | Time to maximum rate (TMR) ([2]; 160.0 ° C. (onset temperature of 2nd exotherm)): 1.3 h

[N-]=[N+]=NCCOC(=O)NCCCC[C@H](N)C(=O)O [Formula (VIa), N^6-((2-azidoethoxy)carbonyl)-L-lysine]
Amount of Formula (VIa) in supernatant ([3]; Supernatant 1, pH 4.44, 0.95 g suspended in 7.2 g water): 36 mg | Amount of Formula (VIa) in supernatant ([3]; Supernatant 2, pH 8.13, basified with ammonium hydroxide): 37 mg | Amount of Formula (VIa) in supernatant ([3]; Supernatant 3, pH 8.58): 38 mg | Amount of Formula (VIa) in supernatant ([3]; Supernatant 4, pH 8.73): 40 mg | Amount of Formula (VIa) in supernatant ([3]; Supernatant 5, pH 8.86): 42 mg | Amount of Formula (VIa) in supernatant ([3]; Supernatant 6, pH 9.00): 44 mg | Amount of Formula (VIa) in supernatant ([3]; Supernatant 7, pH 9.26): 44 mg | amount of product in supernatant of a saturated aqueous solution ([3]; pH range from 4 to 8): roughly the same amount of product in its supernatant

— patent US12577197B2, “Methods of preparing N6-((2-azidoethoxy)carbonyl)lysine” (SANOFI, priority 2019, dated 2026)
